{"source": "patent US6653301B2", "about": "“Pyrazole compounds useful as protein kinase inhibitors” (Vertex Pharmaceuticals Incorporated, priority 2000, dated 2003)", "data": [{"smiles": "COc1cccc(Nc2nc(Nc3cc(C)n[nH]3)c3ccccc3n2)c1", "note": "[IIc-56, [2-(3-Methoxyphenylamino)-quinazolin-4-yl]-(5-methyl-2H-pyrazol-3-yl)-amine]", "values": [{"measurement": "melting point", "result": "212 to 215", "unit": "°C"}]}]}
